Series [1] addresses human GLP-1 receptor (Homo sapiens, UniProt P43220). The experiment in a line: In vitro functional potency, CRE luciferase reporter, whole BHK cells (hGLP-1R). Format: cell-based. To be noted: BHK CRE luc2P hGLP-1R cells. Further details: expressed in transfected cells; host or cells: BHK (parent line BHKTS13), clone BHK CRE luc2P hGLP-1R. Put shortly:
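BHK CRE luc2P cells stably expressing hGIPR or hGLP-1R were seeded at 5000 cells/well overnight. They were treated 3 h at 37° C with a 12-point, 3.5-fold compound series in buffer with or without HSA, and luciferase luminescence was read. Values come from log(agonist)-response regression, averaging at least two replicates.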
For orientation: A reporter such as luciferase makes a cellular process visible.

Series [2] can be described thus: Pharmacokinetic study in dogs after oral dosing of tablets with SNAC. To be noted: for Tmax / half-life: male. The class given is in vivo, Beagle dogs. The procedure, abridged: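 Male beagle dogs (9-17 kg), fasted, received a single oral tablet with 100-300 mg SNAC and 3-4 mg test substance, groups of 6-8.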
Setting [3] is: 0% HSA, read-out: hGLP-1R, CRE Luc 0% HSA EC50.
The mark [4] stands for this setting: hGLP-1R, CRE Luc 1% HSA EC50, 1% HSA.
The mark [5] stands for this setting: oral tablet, SNAC 300 mg, test substance 3 mg, Beagle dogs, arithmetic mean.

Structures are written as SMILES. pEC50: −log10 of the molar value. Read-outs that look alike come from different tables or passages of the source. Marks after values point to notes of the source that are not given here. Starred links: 1 amine or outer side, 2 acyl side, 3 side chain; linkers in the order of their positions; H or OH if unused. Non-standard residues stand in square brackets, D forms with d. Residues, ends and D or L forms follow the SMILES beside them. Groups on a side chain read outwards from the residue. *: point of attachment. C18 diacid = O=C(O)CCCCCCCCCCCCCCCCC(=O)*; γGlu = O=C(O)[C@H](CCC(=O)[*:2])N[*:1]; εLys = N[C@@H](CCCCN[*:1])C(=O)[*:2]; Aib = CC(C)(N)C(=O)O

Chain of human GLP-1 receptor (P43220 24-463): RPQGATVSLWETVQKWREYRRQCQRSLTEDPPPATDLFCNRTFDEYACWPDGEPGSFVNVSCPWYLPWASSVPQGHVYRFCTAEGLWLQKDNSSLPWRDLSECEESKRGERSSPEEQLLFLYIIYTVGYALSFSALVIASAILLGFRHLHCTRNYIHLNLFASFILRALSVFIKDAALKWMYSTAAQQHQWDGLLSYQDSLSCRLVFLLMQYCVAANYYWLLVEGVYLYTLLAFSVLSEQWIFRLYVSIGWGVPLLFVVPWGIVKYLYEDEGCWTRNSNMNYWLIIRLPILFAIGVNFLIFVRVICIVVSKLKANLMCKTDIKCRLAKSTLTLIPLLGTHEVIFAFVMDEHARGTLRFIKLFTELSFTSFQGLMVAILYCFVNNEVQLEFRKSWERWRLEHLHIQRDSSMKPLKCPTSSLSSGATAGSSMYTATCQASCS

The pEC50 is the EC50 on a negative log10 scale, so that one unit is a factor of ten. In general, Tmax refers to the time at which the peak concentration occurs. As for `CC[C@H](C)[C@H](NC(=O)[C@H](Cc1ccccc1)NC(=O)[C@H](CCC(=O)O)NC(=O)[C@H](CCCNC(=N)N)NC(=O)[C@H](C)NC(=O)[C@H](C)NC(=O)[C@H](CCC(N)=O)NC(=O)[C@H](CCCCNC(=O)[C@@H](N)CCCCNC(=O)[C@@H](N)CCCCNC(=O)CC[C@H](NC(=O)CCCCCCCCCCCCCCCCC(=O)O)C(=O)O)NC(=O)[C@H](CCC(=O)O)NC(=O)[C@H](CC(C)C)NC(=O)[C@H](CC(C)C)NC(=O)[C@@H](NC(=O)[C@H](CO)NC(=O)[C@H](Cc1ccc(O)cc1)NC(=O)[C@H](CC(=O)O)NC(=O)[C@H](CO)NC(=O)[C@@H](NC(=O)[C@H](Cc1ccccc1)NC(=O)[C@@H](NC(=O)CNC(=O)[C@H](CCC(=O)O)NC(=O)C(C)(C)NC(=O)[C@@H](N)Cc1ccc(O)cc1)[C@@H](C)O)[C@@H](C)O)[C@@H](C)CC)C(=O)N[C@@H](CCC(=O)O)C(=O)N[C@@H](Cc1c[nH]c2ccccc12)C(=O)N[C@@H](CC(C)C)C(=O)N[C@@H](CC(C)C)C(=O)N[C@@H](C)C(=O)NCC(=O)NCC(=O)N1CCC[C@H]1C(=O)N[C@@H](CO)C(=O)N[C@@H](CO)C(=O)NCC(=O)N[C@@H](C)C(=O)N1CCC[C@H]1C(=O)N1CCC[C@H]1C(=O)N1CCC[C@H]1C(=O)N[C@@H](CO)C(=O)O` [Compound 31] (H-Y[Aib]EGTFTSDYSILLEK([εLys-εLys-γGlu-C18 diacid])QAAREFIEWLLAGGPSSGAPPPS-OH), in series [1] (setting [3]), the negative logarithm of the EC50 (pEC50) was 11.38. In addition, the pEC50 in series [1] (setting [4]) is 9.69. In addition, in series [2] (dog, in vivo, po), the AUC/Dose was 17.9** kg * h/L and the Cmax/Dose is 0.35** kg/L. In series [2] (Beagle, dog, in vivo, po), the Tmax was 1.3 h and the half-life is 56 h.
Consider `CC[C@H](C)[C@H](NC(=O)[C@H](Cc1ccccc1)NC(=O)[C@H](CCC(=O)O)NC(=O)[C@H](CCCNC(=N)N)NC(=O)[C@H](C)NC(=O)[C@H](C)NC(=O)[C@H](CCC(N)=O)NC(=O)[C@H](CCCCNC(=O)[C@@H](N)CCCCNC(=O)[C@@H](N)CCCCNC(=O)CC[C@H](NC(=O)CCCCCCCCCCCCCCCCC(=O)O)C(=O)O)NC(=O)[C@H](CCC(=O)O)NC(=O)[C@H](CC(C)C)NC(=O)[C@H](CC(C)C)NC(=O)[C@@H](NC(=O)[C@H](CO)NC(=O)[C@H](Cc1ccc(O)cc1)NC(=O)[C@H](CC(=O)O)NC(=O)[C@H](CO)NC(=O)[C@@H](NC(=O)[C@H](Cc1ccccc1)NC(=O)[C@@H](NC(=O)CNC(=O)[C@H](CCC(=O)O)NC(=O)C(C)(C)NC(=O)[C@@H](N)Cc1ccc(O)cc1)[C@@H](C)O)[C@@H](C)O)[C@@H](C)CC)C(=O)N[C@@H](CCC(=O)O)C(=O)N[C@@H](Cc1c[nH]c2ccccc12)C(=O)N[C@@H](CC(C)C)C(=O)N[C@@H](CC(C)C)C(=O)N[C@@H](CCCNC(=N)N)C(=O)NCC(=O)NCC(=O)N1CCC[C@H]1C(=O)N[C@@H](CCC(=O)O)C(=O)N[C@@H](CO)C(=O)NCC(=O)N[C@@H](C)C(=O)N1CCC[C@H]1C(=O)N1CCC[C@H]1C(=O)N1CCC[C@H]1C(=O)N[C@@H](CO)C(=O)O` [Compound 28] (H-Y[Aib]EGTFTSDYSILLEK([εLys-εLys-γGlu-C18 diacid])QAAREFIEWLLRGGPESGAPPPS-OH), for which the pEC50 in series [1] (hGLP-1R, CRE Luc 0% HSA EC50, 0% HSA) is 11.21. Moreover, the pEC50 in series [1] (setting [4]) was 9.86. Besides, the half-life in series [2] (dog, in vivo, oral tablet, SNAC 300 mg, test substance 3 mg, Beagle dogs, harmonic mean, read-out: t1/2 (converted)) is 67 h. In addition, the Tmax in series [2] (dog, in vivo, oral tablet, SNAC 300 mg, test substance 3 mg, Beagle dogs, median, read-out: Tmax) amounted to 1.3 h. For the same molecule, in series [2] (setting [5]), the AUC/Dose is 18.6** kg * h/L and the Cmax/Dose is 0.36** kg/L.
Regarding `CC[C@H](C)[C@H](NC(=O)[C@H](Cc1ccccc1)NC(=O)[C@H](CCC(=O)O)NC(=O)[C@H](CCC(N)=O)NC(=O)[C@H](C)NC(=O)[C@H](C)NC(=O)[C@H](CCC(N)=O)NC(=O)[C@H](CCCCNC(=O)[C@@H](N)CCCCNC(=O)[C@@H](N)CCCCNC(=O)CC[C@H](NC(=O)CCCCCCCCCCCCCCCCC(=O)O)C(=O)O)NC(=O)[C@H](CCC(=O)O)NC(=O)[C@H](CC(C)C)NC(=O)[C@H](CC(C)C)NC(=O)[C@@H](NC(=O)[C@H](CO)NC(=O)[C@H](Cc1ccc(O)cc1)NC(=O)[C@H](CC(=O)O)NC(=O)[C@H](CO)NC(=O)[C@@H](NC(=O)[C@H](Cc1ccccc1)NC(=O)[C@@H](NC(=O)CNC(=O)[C@H](CCC(=O)O)NC(=O)C(C)(C)NC(=O)[C@@H](N)Cc1ccc(O)cc1)[C@@H](C)O)[C@@H](C)O)[C@@H](C)CC)C(=O)N[C@@H](CCC(=O)O)C(=O)N[C@@H](Cc1c[nH]c2ccccc12)C(=O)N[C@@H](CC(C)C)C(=O)N[C@@H](CC(C)C)C(=O)N[C@@H](C)C(=O)NCC(=O)NCC(=O)N1CCC[C@H]1C(=O)N[C@@H](CO)C(=O)N[C@@H](CO)C(=O)NCC(=O)N[C@@H](C)C(=O)N1CCC[C@H]1C(=O)N1CCC[C@H]1C(=O)N1CCC[C@H]1C(=O)N[C@@H](CO)C(=O)O` [Compound 29] (H-Y[Aib]EGTFTSDYSILLEK([εLys-εLys-γGlu-C18 diacid])QAAQEFIEWLLAGGPSSGAPPPS-OH), the pEC50 in series [1] (setting [3]) is 10.77. For the same molecule, the pEC50 in series [1] (setting [4]) was 9.42. Also, in series [2] (dog, in vivo, po), the AUC/Dose is reported as 16.6** kg * h/L and the Cmax/Dose was 0.26** kg/L. In series [2] (Beagle, dog, in vivo, po), the Tmax was 1.2 h and the half-life was 69 h.

Source of the values: patent publication US20220177538A1, “CO-AGONISTS AT GLP-1 AND GIP RECEPTORS SUITABLE FOR ORAL DELIVERY” (Novo Nordisk A/S, priority 2020, published 2022).
